# Results taken from US8476255B2, “Histone deacetylase inhibitors” (Orchid Chemicals & Pharmaceuticals Limited, priority 2007, dated 2013).
# How the values were obtained:
# NCIH460 (lung) cells = assay: Anti-cancer screen (MTT), NCIH460; assay type: cell-based; settings: Homo sapiens, NCI-H460, NCIH460, 48 hours, MTT; for GI50: read-out: Cell growth inhibition NCIH460 (Lung) GI50; for LC50: read-out: Cell growth inhibition NCIH460 (Lung) LC50; for IC (TGI): read-out: Cell growth inhibition NCIH460 (Lung) TGI
# Procedure, shortened: (§1)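 5×10^4 cells/mL, DMEM + 10% FBS, 24 h attach, 37 °C/5% CO2. Cpds 0.01–100 μM (5 conc., triplicate), 48 h. MTT 3 h → DMSO → A570; T0 plate read at dosing.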
# HCT 116 (colon) cells = assay: Anti-cancer screen (MTT), HCT 116; assay type: cell-based; settings: Homo sapiens, HCT-116, HCT116, 48 hours, MTT; for GI50: read-out: Cell growth inhibition HCT116 (Colon) GI50; for CC50: read-out: Cell growth inhibition HCT116 (Colon) LC50; for IC (TGI): read-out: Cell growth inhibition HCT116 (Colon) TGI
# Procedure, shortened: as §1
# U251 (glioma) cells = assay: Anti-cancer screen (MTT), U251; assay type: cell-based; settings: Homo sapiens, U-251, U251, 48 hours, MTT; for GI50: read-out: Cell growth inhibition U251 (Glioma) GI50; for LC50 (concentration giving 50% net cell kill relative to the time-zero cell count): read-out: Cell growth inhibition U251 (Glioma) LC50; for IC (TGI): read-out: Cell growth inhibition U251 (Glioma) TGI
# Procedure, shortened: as §1
# [1] = test system: NCIH460, HCT116 and U251 cells; assay: Anti-cancer screen, mean GI50 over cell lines; assay type: cell-based; settings: mean over cell lines; read-out: Cell growth inhibition Mean GI50
# Procedure, shortened: as §1
# [2] = test system: HDAC (Mouse Liver Extract); assay: HDAC inhibition assay using Boc-Lys(Ac)-AMC substrate; assay type: biochemical; settings: mouse liver enzyme
# Procedure, shortened: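 Boc-Lys(Ac)-AMC substrate incubated with mouse liver extract as HDAC source, 5 min preincubation then 30 min at 37° C. Trypsin stop solution added (37° C., 15-30 min) to release AMC, read at ex 360/em 460 nm; buffer-only and substrate-only wells as blanks.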
SMILES,GI50 (NCIH460 (lung) cells),LC50 (NCIH460 (lung) cells),IC (TGI) (NCIH460 (lung) cells),GI50 (HCT 116 (colon) cells),CC50 (HCT 116 (colon) cells),IC (TGI) (HCT 116 (colon) cells),GI50 (U251 (glioma) cells),LC50 (concentration giving 50% net cell kill relative to the time-zero cell count) (U251 (glioma) cells),IC (TGI) (U251 (glioma) cells),GI50 [1],HDAC inhibition % (1 μM) [2],HDAC inhibition % (10 μM) [2],IC50 [2]
"COC(=O)c1ccc(/C=C(/C(=O)NCc2ccc(C(=O)Nc3ccccc3N)cc2)c2ccc(OC)cc2)cc1 [Compound 35, N-(2-Aminophenyl)-4-((3-(4-carbmethoxyphenyl)-2-(4-methoxyphenyl)acrylamido)methyl)benzamide]",> 100 µM,> 100 µM,> 100 µM,2 µM,> 100 µM,> 100 µM,> 100 µM,> 100 µM,> 100 µM,2 µM,24.8%,41.1%,
O=C(CCCCCNC(=O)NC(=O)/C(=C/c1ccccc1)c1ccccc1)NO [Compound 101],10 µM,82 µM,45 µM,2.9 µM,13.2 µM,7.6 µM,7 µM,76 µM,35 µM,6.6 µM,89.5%,97.1%,0.07 µM
"COc1cc(/C=C(/C(=O)NCc2ccc(C(=O)Nc3ccccc3N)cc2)c2ccc(F)cc2)cc(OC)c1OC [Compound 8, N-(2-Aminophenyl)-4-((3-(3,4,5-trimethoxyphenyl)-2-(4-fluorophenyl)acrylamido)methyl)benzamide]",89 µM,> 100 µM,> 100 µM,24.5 µM,> 100 µM,82.5 µM,67 µM,> 100 µM,84.5 µM,60.2 µM,21.4%,26.4%,
"COc1ccc(/C(=C\c2ccc(F)cc2)C(=O)NCc2ccc(C(=O)NO)cc2)cc1 [Compound 49, 4-((2-(4-Methoxyphenyl)-3-(4-fluorophenyl)acrylamido)methyl)-N-hydroxybenzamide]",19 µM,89 µM,52.5 µM,3.3 µM,66 µM,9 µM,5.4 µM,81 µM,34.5 µM,9.2 µM,45.5%,69.7%,0.33 µM
"Nc1ccccc1NC(=O)c1ccc(CNC(=O)/C(=C/c2ccc(F)cc2Cl)c2ccccc2)cc1 [Compound 9, N-(2-Aminophenyl)-4-((3-(2-chloro-4-fluorophenyl)-2-(phenyl)acrylamido)methyl)benzamide]",90 µM,> 100 µM,> 100 µM,58 µM,> 100 µM,94 µM,60 µM,> 100 µM,79 µM,69.3 µM,12.1%,32.1%,
"COc1ccc(/C=C(/C(=O)NCc2ccc(C(=O)NO)cc2)c2ccc(C)cc2)cc1OC [Compound 62, 4-((2-(4-Methylphenyl)-3-(3,4-dimethoxyphenyl)acrylamido)methyl)-N-hydroxybenzamide]",> 100 µM,> 100 µM,> 100 µM,90 µM,> 100 µM,> 100 µM,> 100 µM,> 100 µM,> 100 µM,90 µM,83.2%,100.0%,
"CSc1ccc(/C=C(/C(=O)NCc2ccc(C(=O)Nc3ccccc3N)cc2)c2ccsc2)cc1 [Compound 26, N-(2-Aminophenyl)-4-((3-(4-methylthiophenyl)-2-(thiophen-3-yl)acrylamido)methyl)benzamide]",52 µM,> 100 µM,> 100 µM,4 µM,> 100 µM,15 µM,50 µM,> 100 µM,70 µM,35.3 µM,34.1%,42.6%,
"CS(=O)(=O)c1ccc(/C=C(/C(=O)NCCCCCC(=O)Nc2ccccc2N)c2ccc(F)cc2)cc1 [Compound 97, N-(2-Aminophenyl)-6-(2-(4-fluorophenyl)-3-(4-methylsulfonyllphenyl)acrylamido)hexanamide]",56 µM,> 100 µM,> 100 µM,6.8 µM,> 100 µM,85 µM,6.5 µM,87 µM,44 µM,23.1 µM,10.2%,34.2%,
O=C(CCCCCNC(=O)NC(=O)/C(=C/c1ccc(F)c(F)c1)c1ccc(F)cc1)NO [Compound 100],40 µM,96 µM,70 µM,8.8 µM,82 µM,46 µM,28 µM,84 µM,62 µM,25.6 µM,77.1%,96.3%,
"COc1ccc(/C=C(/C(=O)NCc2ccc(C(=O)Nc3ccccc3N)cc2)c2ccc(F)cc2)cc1 [Compound 11, N-(2-Aminophenyl)-4-((3-(4-methoxyphenyl)-2-(4-fluorophenyl)acrylamido)methyl)benzamide]",8 µM,83 µM,41.2 µM,5 µM,68.5 µM,12.5 µM,26.1 µM,86 µM,53 µM,13 µM,9.7%,24.6%,
"COc1cc(/C=C(/C(=O)NCc2ccc(C(=O)NO)cc2)c2ccc(F)cc2)ccc1F [Compound 60, 4-((2-(4-Fluorophenyl)-3-(4-fluoro-3-methoxyphenyl)acrylamido)methyl)-N-hydroxybenzamide]",25 µM,80 µM,50 µM,10 µM,81 µM,50 µM,17 µM,99 µM,38 µM,17.3 µM,66.6%,95.0%,
"COc1ccc(/C=C(/C(=O)NCc2ccc(C(=O)Nc3ccccc3N)cc2)c2ccccc2Cl)cc1OC [Compound 30, N-(2-Aminophenyl)-4-((3-(3,4-dimethoxyphenyl)-2-(2-chlorophenyl)acrylamido)methyl)benzamide]",> 100 µM,> 100 µM,> 100 µM,100 µM,> 100 µM,> 100 µM,1 µM,> 100 µM,> 100 µM,50.5 µM,7.1%,30.1%,
"O=C(CCCCCNC(=O)/C(=C/c1c(F)cc(F)cc1F)c1ccc(F)cc1)NO [Compound 89, 6-(2-(4-Fluorophenyl)-3-(2,4,6-trifluorophenyl)acrylamido)-N-hydroxy hexanamide]",3 µM,45 µM,13 µM,4 µM,83 µM,10 µM,4 µM,81 µM,6.7 µM,3.7 µM,64.9%,97.6%,0.03 µM
"COc1cc(/C=C(/C(=O)NCc2ccc(C(=O)Nc3ccccc3N)cc2)c2ccc(F)cc2)ccc1F [Compound 20, N-(2-Aminophenyl)-4-((3-(4-fluoro-3-methoxyphenyl)-2-(4-fluorophenyl)acrylamido)methyl)benzamide]",7.5 µM,,18 µM,0.3 µM,80 µM,20 µM,1.7 µM,,3.5 µM,3.2 µM,45.1%,46.2%,
